Assay results: patent US20090068744A1, “VITREOUS CELL LINE” (SENJU PHARMACEUTICAL CO., LTD., priority 2006, published 2009)

These substances were tested on VEGF mRNA expression by a vitreous cell line (assay: VEGF mRNA expression by RT-PCR after cytokine stimulation of the vitreous cell line). Conditions: cytokine 10 ng/ml, up to 48 hours; FIG. 7, FIG. 9.
Format: cell-based, swine
Protocol: Changes of VEGF expression due to cytokine stimulation in the vitreous cell line established in Example 1 were examined. The expression of VEGF at an mRNA level was examined by RT-PCR, and the expression at a protein level was examined by ELISA.
To be specific, when the vitreous cell line reached 50-60% confluent, the medium for the cells was exchanged with DMEM containing 1% bovine serum. […] Total RNA was extracted from the stimulated cells, cDNA was synthesized, and PCR was conducted using VEGF primers. The medium of the stimulated cells was used for ELISA. Since an appropriate antibody to swine VEGF is not available, VEGF protein concentration was measured by ELISA using an antibody to human VEGF, and the result was calculated as a reference value led from a human VEGF standard product. PCR was conducted using TOYOBO KOD plus kit and Gene PCR System 9700 (Applied Biosystem). The conditions of PCR were as follows:
95° C. 120 seconds; (95° C. 15 seconds, 62° C. 30 seconds, 68° C. 30 seconds)×30 cycles; 68° C. 90 seconds. ELISA was entrusted to Mitsubishi BCL.

| Substance | VEGF mRNA expression level |
| --- | --- |
| IL-6: cytokine named among other cytokines used for stimulation | a significant change in the VEGF mRNA expression level was not observed |
| TNFα | a significant change in the VEGF mRNA expression level was not observed |
| PDGF-AA: cytokine used to stimulate the vitreous cell line (10 ng/ml) | a significant change in the VEGF mRNA expression level was not observed |
| IL-1β: cytokine used to stimulate the vitreous cell line (10 ng/ml) | a significant change in the VEGF mRNA expression level was not observed |
| TGFβ | a significant change in the VEGF mRNA expression level was not observed |

What follows are substances tested on HAS2 expression by a vitreous cell line (assay: HAS2 mRNA expression by RT-PCR after cytokine stimulation of the vitreous cell line). Conditions: cell line transfected with Smad2, 3 or 4; FIG. 5.
Format: cell-based, swine
Protocol: Next, expression of hyaluronic acid synthase (HAS)2 and the effect of PDGF-BB and/or TGF-β1 on the hyaluronic acid production in the established vitreous cell line were examined. The expression was observed by RT-PCR.
To be specific, when the vitreous cell line was 50-60% confluent, the medium of the cells was exchanged with DMEM containing 1% bovine serum and, after culturing for 24 hr, the cells were stimulated with TGF-β1 (10 ng/ml) and PDGF-BB (10 ng/ml). In a part of the examination, Smad2, 3 or 4 was transfected into the cell line after 6 hr from the medium exchange. The cells and culture supernatant were recovered at 3, 6, 24 and 48 hr after the cytokine stimulation (FIG. 2). Total RNA was extracted from the cells, cDNA was synthesized, and RT-PCR was performed using primers specific to HAS2. Using Roche FastStart High Fidelity PCR System, PCR was performed on Gene Amp PCR System 9700 (Applied Biosystems). The PCR conditions were as follows:
95° C. 2 min.→(95° C. 30 seconds→X° C. 30 seconds→72° C. […])×Y cycle→72° C. 7 min
X=60, Y=25 . . . beta-Actin

| Substance | expression of HAS2 under forced expression of Smad2, 3 or 4 |
| --- | --- |
| TGF-β1: cytokine used to stimulate the vitreous cell line (10 ng/ml) | resulted in the expression of HAS2 |
